According to patent US12623942B2, “Method for extracting salts and temperature- regenerated extracting composition” (ADIONICS, priority 2016, dated 2026):

How the values were obtained:
[1] = Complexing constant Log K in methanol at 25° C.; type: binding
Method: K is the complexing constant of a CEM and a […] cation in methanol, at 25° C., which is measured according to the standard method of isothermal calorimetric titration.

[2] = Liquid-liquid extraction of mono-salt saline solution; details: 0.1M CEM + 3.52M ASM2 in CH2Cl2; initial salt 0.1 mol/L; Org./Water = 1; molar %
Text: The extracting composition is obtained by solubilizing an amount of CEM and ASM in the selected fluidizing agent, dichloromethane CH2Cl2, dichlorobenzene or dichlorotoluene or any other fluidizing agent able to well solubilize the mixture CEM/ASM in order to obtain the searched final concentrations after solubilizing CEMs and ASMs in a minimum of 3 milliliters of fluidizing agent. If the selected fluidizing agent is also an ASM compound, so the selected ASM volume is at least 3 milliliters. The given concentrations of ASM2 and ASM9 are related to the added fluidizing agent volume and the concentrations of CEM are related to the added fluidizing agent+ASM volume. The extracting organic composition is then lightly heated so as to promote the solubilization of the organic compounds by means of a heat gun (temperature around 50 to 60° C.) for a few seconds (10 to 30 seconds) until a clear solution is obtained. The composition is thus left for 24 hours at room temperature so as to make sure that the obtained formulation is stable.
These sealed formulations are then orbitally stirred at 500 revolutions/minute for two hours after adding an equivalent volume of water which was distilled twice so as to allow a water saturation of the whole formulation and a pH control at the inlet and at the outlet (pH close to 7, or at least maintained after contact with the saturation water).
3 mL of the prepared extracting organic composition are then taken from the lower phase of the decanted diphasic mixture and transferred to a vial containing 3 mL of the water containing the one or more considered chloride salts (NaCl or others), then the vial is sealed and orbitally stirred (at 500 revolutions per minute) for 2 hours at room temperature (RT), that is to say between 20 and 25° C.
A verification is made to make sure that droplets in the range of 1-2 mm are really present during these stirrings in order to be sure that an equilibrium in the distribution of the considered chloride salt (NaCl or other) is achieved between both liquid phases at the end of stirring. The aspect of the organic and aqueous phases is clear and colorless or slightly turbid.
Once the 2-hour stirring is carried out, the stirring is stopped and the whole is left for decantation for about 10 minutes, at least until both phases are completely separated, at the temperature of the assay. Then, the upper aqueous phase is taken then stirred and diluted in order to analyze its salinity by a ion chromatography (a Metrohm™ device including a cation analyzing column and an anion analyzing column suitable for the ions and for the concentration of the salts which are searched for). Likewise, the chloride salt (NaCl or other) initial aqueous solution is also analyzed by this ion chromatography to determine its cation and chloride molar relative concentration before the extraction. All the extractions and analyses were duplicated.
The considered extracting composition comprises 0.1 mol/L of CEM1 and 3.52 mol/L of ASM2 in dichloromethane CH2Cl2, which was obtained as described above. The initial concentration of the considered salt in water, whether it is LiCl, NaCl, KCl, MgCl2, CaCl2, SrCl2 or BaCl2, is 0.1 mol/L.
After carrying out these 7 specific extractions (duplicated) of salts, the amounts of extracted cations in relative molar percentage before and after extraction at room temperature and at water/extracting formulation iso-volume are indicated in table I: […]

[3] = Extraction of salts from a brine, four extraction steps; details: 0.4M CEM1 + 1.2M ASM9 in 12ClPh; for Salinity progression at RT, Ca / Salinity progression at RT, Cl / Salinity progression at RT, K / Salinity progression at RT, Mg / Salinity progression at RT, Na: Org./Water 3, brine 180 g/Liter
Text: (§1) The extracting composition is as follows: 0.4 Mol/L of CEM1 (cf example 1, of CAS #: 114155-16-7), completed with 1.2 Mol/L of ASM9 of formula: […]
(§2) The brine is a water having a high salinity, at 180 g/Liter (that is to say 5.6 Mol/L), composed of sodium, potassium, calcium, magnesium and chloride ions in the proportions of table II below. The saline water to be treated was contacted with a triple relative volume of this extracting composition in order to get close to the operating conditions.
(§3) It is shown in table II below the concentrations, in mMol/L of water, of each of the ions before and after each of the four extraction steps, carried out at room temperature (RT).

[4] = Extraction of salts from a brine, four extraction steps, total salinity; details: 0.4M CEM1 + 1.2M ASM9 in 12ClPh; for Salinity progression at RT, Total: Org./Water 3, brine 180 g/Liter
Text: as §1, §2, §3

[5] = Selective extraction from a binary mixture NaCl/CaCl2; details: 0.1 mol/L CEM + 2.4 mol/L ASM9 in 1,2-dichlorobenzene; brine 0.05 mol/L NaCl and CaCl2 each; RT; molar %
Text: A brine containing an equimolar mixture of salts, 0.05 mol/L of NaCl and CaCl2 each, which was made as described above, was contacted with two extracting compositions, one of which according to the invention.
Each extracting composition comprises 0.1 mol/L of CEM
[drawing 53] and 2.4 mol/L of ASM9 in 1,2-dichlorobenzene.
A brine containing a mixture of NaCl and CaCl2 is made as described above to obtain the following initial saline concentrations in a mixture: 0.2 Mol/L of NaCl and 0.03 Mol/L of CaCl2. The extracting resin, is composed of 0.1 Mol/L of CEM2, 3.52 Mol/L of ASM2 and a complement of liquid ASM1, which is also used as a fluidizing agent.

[6] = after Extract 4, expressed in g/Liter

CCN(CC)C(=O)COc1c2cc(C(C)(C)C)cc1Cc1cc(C(C)(C)C)cc(c1OCC(=O)N(CC)CC)Cc1cc(C(C)(C)C)cc(c1OCC(=O)N(CC)CC)Cc1cc(C(C)(C)C)cc(c1OCC(=O)N(CC)CC)C2 [CEM1, 4-tert-butyl-Calix[4]arene tetrakis(N,N-diethylacetamide)]
Log K(Ba^++, MeOH, 25° C.) [1]: 7.2 | Log K(Ca^++, MeOH, 25° C.) [1]: > 9.0 | Log K(Cs^+, MeOH, 25° C.) [1]: 2.5 | Log K(K^+, MeOH, 25° C.) [1]: 5.8 | Log K(Li^+, MeOH, 25° C.) [1]: 4.0 | Log K(Mg^++, MeOH, 25° C.) [1]: < 1.2 | Log K(Na^+, MeOH, 25° C.) [1]: 7.9 | Log K(Rb^+, MeOH, 25° C.) [1]: 3.8 | Log K(Sr^++, MeOH, 25° C.) [1]: > 9.0 | Extraction rate at room temperature (RT), BaCl2 [2]: 46.1% | Extraction rate at room temperature (RT), CaCl2 [2]: 59.4% | Extraction rate at room temperature (RT), KCl [2]: 75.8% | Extraction rate at room temperature (RT), LiCl [2]: 73.7% | Extraction rate at room temperature (RT), MgCl2 [2]: 5.4% | Extraction rate at room temperature (RT), NaCl [2]: 85.8% | Extraction rate at room temperature (RT), SrCl2 [2]: 64.0% | Salinity progression at RT, Ca ([3]; after Extract 1): 495 mmol/L | Salinity progression at RT, Cl ([3]; after Extract 1): 2703 mmol/L | Salinity progression at RT, K ([3]; after Extract 1): 22.5 mmol/L | Salinity progression at RT, Mg ([3]; after Extract 1): 83.4 mmol/L | Salinity progression at RT, Na ([3]; after Extract 1): 1162 mmol/L | Salinity progression at RT, Ca ([3]; after Extract 2): 492 mmol/L | Salinity progression at RT, Cl ([3]; after Extract 2): 2292 mmol/L | Salinity progression at RT, K ([3]; after Extract 2): 23.4 mmol/L | Salinity progression at RT, Mg ([3]; after Extract 2): 86.4 mmol/L | Salinity progression at RT, Na ([3]; after Extract 2): 429 mmol/L | Salinity progression at RT, Ca ([3]; after Extract 3): 360 mmol/L | Salinity progression at RT, Cl ([3]; after Extract 3): 1083 mmol/L | Salinity progression at RT, K ([3]; after Extract 3): 13.9 mmol/L | Salinity progression at RT, Mg ([3]; after Extract 3): 87.6 mmol/L | Salinity progression at RT, Na ([3]; after Extract 3): 8.54 mmol/L | Salinity progression at RT, Ca ([3]; after Extract 4): 114 mmol/L | Salinity progression at RT, Cl ([3]; after Extract 4): 469 mmol/L | Salinity progression at RT, K ([3]; after Extract 4): 3.65 mmol/L | Salinity progression at RT, Mg ([3]; after Extract 4): 94.2 mmol/L | Salinity progression at RT, Na ([3]; after Extract 4): 3.70 mmol/L | Equivalent4, Ca [3, 6]: 4.57 g/L | Equivalent4, Cl [3, 6]: 16.62 g/L | Equivalent4, K [3, 6]: 0.14 g/L | Equivalent4, Mg [3, 6]: 2.29 g/L | Equivalent4, Na [3, 6]: 0.09 g/L | Salinity progression at RT, Total ([4]; after Extract 1): 4466 mmol/L | Salinity progression at RT, Total ([4]; after Extract 2): 3322 mmol/L | Salinity progression at RT, Total ([4]; after Extract 3): 1553 mmol/L | Salinity progression at RT, Total ([4]; after Extract 4): 685 mmol/L | Equivalent4, Total [4, 6]: 23.70 g/L | % E Ca^++ [5]: 10.0% | % E Na^+ [5]: 88.0%
